# According to PubChem BioAssay AID1963984 (Molecular Pharmacology Branch, DTP, NCI, 2024):
# Tested on: 233499-124-R-J3-PDC spheroids with HUVEC/MSC, viability
# Test: Anticancer human tumor 233499-124-R-J3-PDC patient-derived colon adenocarcinoma cell line growth inhibition [PI3K]
# Conditions: for IC50: curve of first compound; for viability, T/C: stronger effect = lower value
# How it was run: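 Tumor cells grown as multi-cell spheroids with HUVEC endothelial cells and MSC fibroblast-like stroma were treated with targeted agents combined with inavolisib, alpelisib, duvelisib or copanlisib. Doses fell in half-log steps from near clinical Cmax, else from 10 microM. Viability was measured.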
# [1] = second compound 0.00316 µM, first compound 0.0316 µM
# [2] = second compound 0.00316 µM, first compound 0.1 µM
# [3] = second compound 0.00316 µM, first compound 0.316 µM
# [4] = second compound 0.00316 µM, first compound 1 µM
# [5] = second compound 0.00316 µM, first compound 3.16 µM
# [6] = second compound 0.00316 µM, first compound 10 µM
# [7] = second compound 0.01 µM, first compound 0.0316 µM
# [8] = second compound 0.01 µM, first compound 0.1 µM
# [9] = second compound 0.01 µM, first compound 0.316 µM
# [10] = second compound 0.01 µM, first compound 1 µM
# [11] = second compound 0.01 µM, first compound 3.16 µM
# [12] = second compound 0.01 µM, first compound 10 µM
# [13] = second compound 0.0316 µM, first compound 0.0316 µM
# [14] = second compound 0.0316 µM, first compound 0.1 µM
# [15] = second compound 0.0316 µM, first compound 0.316 µM
# [16] = second compound 0.0316 µM, first compound 1 µM
# [17] = second compound 0.0316 µM, first compound 3.16 µM
# [18] = second compound 0.0316 µM, first compound 10 µM
# [19] = second compound 0.1 µM, first compound 0.0316 µM
# [20] = second compound 0.1 µM, first compound 0.1 µM
# [21] = second compound 0.1 µM, first compound 0.316 µM
# [22] = second compound 0.1 µM, first compound 1 µM
# [23] = second compound 0.1 µM, first compound 3.16 µM
# [24] = second compound 0.1 µM, first compound 10 µM
# [25] = second compound 0.316 µM, first compound 0.0316 µM
# [26] = second compound 0.316 µM, first compound 0.1 µM
# [27] = second compound 0.316 µM, first compound 0.316 µM
# [28] = second compound 0.316 µM, first compound 1 µM
# [29] = second compound 0.316 µM, first compound 3.16 µM
# [30] = second compound 0.316 µM, first compound 10 µM
# [31] = second compound 1 µM, first compound 0.0316 µM
# [32] = second compound 1 µM, first compound 0.1 µM
# [33] = second compound 1 µM, first compound 0.316 µM
# [34] = second compound 1 µM, first compound 1 µM
# [35] = second compound 1 µM, first compound 3.16 µM
# [36] = second compound 1 µM, first compound 10 µM
# 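Further: spheroids exposed to agents for seven days before readout.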
# 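Wherever viability, T/C is given: percent viability relative to DMSO vehicle control taken as 100%.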
structure (smiles),measurement,setting,value
CC1(C)CCC(CN2CCN(c3ccc(C(=O)NS(=O)(=O)c4ccc(NCC5CCOCC5)c([N+](=O)[O-])c4)c(Oc4cnc5[nH]ccc5c4)c3)CC2)=C(c2ccc(Cl)cc2)C1 + COc1c(OCCCN2CCOCC2)ccc2c3n(c(=NC(=O)c4cnc(N)nc4)nc12)CCN3,IC50,second compound 0.00316 µM,> 10 µM
same,IC50,second compound 0.01 µM,> 10 µM
same,IC50,second compound 0.0316 µM,> 10 µM
same,IC50,second compound 0.1 µM,8.16 µM
same,IC50,second compound 0.316 µM,< 0.0316 µM
same,IC50,second compound 1 µM,< 0.0316 µM
same,"viability, T/C",[1],93.8%
same,"viability, T/C",[2],108%
same,"viability, T/C",[3],113%
same,"viability, T/C",[4],101%
same,"viability, T/C",[5],99%
same,"viability, T/C",[6],100%
same,"viability, T/C",[7],96.7%
same,"viability, T/C",[8],104%
same,"viability, T/C",[9],92%
same,"viability, T/C",[10],108%
same,"viability, T/C",[11],101%
same,"viability, T/C",[12],93.1%
same,"viability, T/C",[13],96.5%
same,"viability, T/C",[14],95%
same,"viability, T/C",[15],86.4%
same,"viability, T/C",[16],78.7%
same,"viability, T/C",[17],80.1%
same,"viability, T/C",[18],61.2%
same,"viability, T/C",[19],60.6%
same,"viability, T/C",[20],73.3%
same,"viability, T/C",[21],55.5%
same,"viability, T/C",[22],62.2%
same,"viability, T/C",[23],53.3%
same,"viability, T/C",[24],49.5%
same,"viability, T/C",[25],19.8%
same,"viability, T/C",[26],28.9%
same,"viability, T/C",[27],15.3%
same,"viability, T/C",[28],40.2%
same,"viability, T/C",[29],17.5%
same,"viability, T/C",[30],26.6%
same,"viability, T/C",[31],7.27%
same,"viability, T/C",[32],2.35%
same,"viability, T/C",[33],15.9%
same,"viability, T/C",[34],13.9%
same,"viability, T/C",[35],6.93%
same,"viability, T/C",[36],13.2%
C[C@@H](NC(=O)c1ncnc(N)c1Cl)c1ncc(C(=O)Nc2cc(C(F)(F)F)c(Cl)cn2)s1 + COc1c(OCCCN2CCOCC2)ccc2c3n(c(=NC(=O)c4cnc(N)nc4)nc12)CCN3,IC50,second compound 0.00316 µM,> 10 µM
same,IC50,second compound 0.01 µM,> 10 µM
same,IC50,second compound 0.0316 µM,> 10 µM
same,IC50,second compound 0.1 µM,> 10 µM
same,IC50,second compound 0.316 µM,< 0.0316 µM
same,IC50,second compound 1 µM,< 0.0316 µM
same,"viability, T/C",[1],97.6%
same,"viability, T/C",[2],127%
same,"viability, T/C",[3],126%
same,"viability, T/C",[4],103%
same,"viability, T/C",[5],120%
same,"viability, T/C",[6],104%
same,"viability, T/C",[7],94.1%
same,"viability, T/C",[8],103%
same,"viability, T/C",[9],105%
same,"viability, T/C",[10],117%
same,"viability, T/C",[11],121%
same,"viability, T/C",[12],123%
same,"viability, T/C",[13],113%
same,"viability, T/C",[14],107%
same,"viability, T/C",[15],109%
same,"viability, T/C",[16],96.1%
same,"viability, T/C",[17],107%
same,"viability, T/C",[18],106%
same,"viability, T/C",[19],85.6%
same,"viability, T/C",[20],79.4%
same,"viability, T/C",[21],85.5%
same,"viability, T/C",[22],69.8%
same,"viability, T/C",[23],97.9%
same,"viability, T/C",[24],99.3%
same,"viability, T/C",[25],44.8%
same,"viability, T/C",[26],31.8%
same,"viability, T/C",[27],21%
same,"viability, T/C",[28],37.7%
same,"viability, T/C",[29],45.6%
same,"viability, T/C",[30],31.2%
same,"viability, T/C",[31],6.68%
same,"viability, T/C",[32],10.7%
same,"viability, T/C",[33],13.8%
same,"viability, T/C",[34],7.94%
same,"viability, T/C",[35],20%
same,"viability, T/C",[36],1.67%
Cn1ncnc1[C@H]1c2n[nH]c(=O)c3cc(F)cc(c23)N[C@@H]1c1ccc(F)cc1 + COc1c(OCCCN2CCOCC2)ccc2c3n(c(=NC(=O)c4cnc(N)nc4)nc12)CCN3,IC50,second compound 0.00316 µM,> 0.1 µM
same,IC50,second compound 0.01 µM,> 0.1 µM
same,IC50,second compound 0.0316 µM,> 0.1 µM
same,IC50,second compound 0.1 µM,> 0.1 µM
same,IC50,second compound 0.316 µM,< 0.000316 µM
same,IC50,second compound 1 µM,< 0.000316 µM
same,"viability, T/C","second compound 0.00316 µM, first compound 0.000316 µM",97.7%
same,"viability, T/C","second compound 0.00316 µM, first compound 0.001 µM",111%
same,"viability, T/C","second compound 0.00316 µM, first compound 0.00316 µM",97.2%
same,"viability, T/C","second compound 0.00316 µM, first compound 0.01 µM",111%
same,"viability, T/C",[1],90.2%
same,"viability, T/C",[2],85.9%
same,"viability, T/C","second compound 0.01 µM, first compound 0.000316 µM",90.1%
same,"viability, T/C","second compound 0.01 µM, first compound 0.001 µM",92.3%
same,"viability, T/C","second compound 0.01 µM, first compound 0.00316 µM",90%
same,"viability, T/C","second compound 0.01 µM, first compound 0.01 µM",78.2%
same,"viability, T/C",[7],90.9%
same,"viability, T/C",[8],66.9%
same,"viability, T/C","second compound 0.0316 µM, first compound 0.000316 µM",94%
same,"viability, T/C","second compound 0.0316 µM, first compound 0.001 µM",81.4%
same,"viability, T/C","second compound 0.0316 µM, first compound 0.00316 µM",89.2%
same,"viability, T/C","second compound 0.0316 µM, first compound 0.01 µM",83.9%
same,"viability, T/C",[13],80.9%
same,"viability, T/C",[14],79.6%
same,"viability, T/C","second compound 0.1 µM, first compound 0.000316 µM",81.1%
same,"viability, T/C","second compound 0.1 µM, first compound 0.001 µM",75.3%
same,"viability, T/C","second compound 0.1 µM, first compound 0.00316 µM",75.9%
same,"viability, T/C","second compound 0.1 µM, first compound 0.01 µM",76.7%
same,"viability, T/C",[19],65.9%
same,"viability, T/C",[20],66.7%
same,"viability, T/C","second compound 0.316 µM, first compound 0.000316 µM",34.7%
same,"viability, T/C","second compound 0.316 µM, first compound 0.001 µM",27.6%
same,"viability, T/C","second compound 0.316 µM, first compound 0.00316 µM",36.6%
same,"viability, T/C","second compound 0.316 µM, first compound 0.01 µM",33.9%
same,"viability, T/C",[25],28.4%
same,"viability, T/C",[26],35%
same,"viability, T/C","second compound 1 µM, first compound 0.000316 µM",4.32%
same,"viability, T/C","second compound 1 µM, first compound 0.001 µM",8.27%
same,"viability, T/C","second compound 1 µM, first compound 0.00316 µM",5.26%
same,"viability, T/C","second compound 1 µM, first compound 0.01 µM",9.55%
same,"viability, T/C",[31],11.9%
same,"viability, T/C",[32],11.5%
